Laboratory results reported in US4789675A, “1,4-benzoxazine derivatives and pharmaceutical use” (priority 1986, dated 1988).
Counter-ions that a name gives are not always drawn. Like-named read-outs stand apart in the source and are kept apart here.

Legend:
[1] = test system: Spontaneously hypertensive rats; assay: Antihypertensive action in spontaneously hypertensive rats (tail-cuff); format: in vivo, rat; conditions: 1 hour after administration
Protocol: Spontaneously hypertensive rats (male, 12 to 13 weeks old, blood pressure before administration of drug was about 200 mmHg) were used in groups of 3 individuals. After measuring tail arterial pressure of these animals by the tail-cuff method, the animals were orally given 3 to 60 mg/kg of each test compound of this invention as 2 ml of its suspension in gum arabic. Blood pressure measurements were made again one hour after administration of each test compound.

[2] = test system: contraction of rabbit aorta strip caused by serotonin (5-HT); assay: Vasodilating action: inhibition of contraction of aorta strip caused by serotonin (5-HT); conditions: Oryctolagus cuniculus; compound 10^-5 M; 5-HT 10^-6 M; treated 15 minutes before the test; read-out: Inhibitory percent against contraction (5-HT)
Protocol: (§1) A spiral strip of aorta of a rabbit (2 to 3 mm width, about 3 cm length) was allowed to equilibrate by hanging under 2 g force in a Krebs-Henseleitsolution. The solution was saturated with a mixture gas of 97% O2 -3% CO2 which was warmed to 37° C. Inhibitory actions of compounds (10^-5 M) of this invention against contraction of the aorta strip caused by KCl ([…]), norepinephrine (NE) (10^-6 M) or serotonin (5-HT) (10^-6 M), by treating the strip with a compound of this invention 30 minutes before the test (15 minutes in the case of 5-HT), are shown in Table 1 as inhibitory percentage.

[3] = test system: contraction of rabbit aorta strip caused by KCl; assay: Vasodilating action: inhibition of contraction of aorta strip caused by KCl; conditions: Oryctolagus cuniculus, compound 10^-5 M, KCl (6.0 mM), read-out: Inhibitory percent against contraction (KCl)
Protocol: as §1

[4] = test system: contraction of rabbit aorta strip caused by norepinephrine (NE); assay: Vasodilating action: inhibition of contraction of aorta strip caused by norepinephrine (NE); conditions: Oryctolagus cuniculus, compound 10^-5 M, NE 10^-6 M, read-out: Inhibitory percent against contraction (NE)
Protocol: as §1

[5] = test system: caffeine-induced contraction of rabbit aorta strip depending on intracellular Ca^++; assay: Intracellular Ca++ antagonism: inhibition of caffeine-induced contraction of aorta strip in Ca-free/EGTA solution; conditions: Oryctolagus cuniculus, caffeine 20 mM, Ca++ 0 mM, EGTA 5 mM, read-out: Inhibitory percent (caffeine contraction); for inhibition at 10 µM: compound 10^-5 M; for inhibition at 1 µM: compound 10^-6 M
Protocol: A spiral strip of aorta of a rabbit (2 to 3 mm width, aobut 3 cm length) was allowed to equilibrate by hanging under 2 g force in a Krebs-Henseleitsolution. The solution was saturated with a mixture gas of 97% O2 -3% CO2, which was warmed to 37° C. The strip was moved into another Krebs-Henseleit solution containing Ca^++ OmM and EGTA 5 mM. Five minutes later, caffeine (20 mM) was added to the solution. The resulting contraction of the strip was made as the index of the contraction depending on intracellular Ca^++.

[6] = Acute toxicity (oral, 7 days observation); conditions: rat, in vivo, male rats, five animals/group, seven days
Excerpt: Male Wister rats aged five weeks (five animals/group) were orally given the test compounds (Example No. 1, 14, 15 and 18) suspended in a 5% solution of gum arabic. Each animal so treated was observed over a period of seven days.

[7] = test system: ischemia-reperfusion-induced ventricular arrhythmia in rats; assay: Effect on the ischemia-reperfusion-induced ventricular arrhythmia in rats; format: in vivo, rat; conditions: p.o., rats with change/rats used; for Cardiac arrest incidence: control 8/18; for Ventricular fibrillation incidence: control 17/18; for Ventricular tachycardia incidence: control 18/18
Protocol: Male Sprague-Dawley rats, 9 to 10 week old, were orally given the compounds or tap water at a volume of 5 ml/kg. After one hour, the animals were anesthetized with sodium pentobarbital (50 mg/kg, by intraperitoneal injection), and they were subjected to thoractomy under artificial respiration, and the left anterior descending coronary artery was occluded for five minutes. The incidences of ventricular tachycardia, ventricular fibrilation and cardiac arrest for ten minutes after reperfusion of the blood were calculated.

[8] = test system: acute renal failure in rats; assay: Effect on acute renal failure in rats (plasma urea nitrogen, BUN); format: in vivo, rat; conditions: p.o., control 27 ± 1, *P < 0.05
Protocol: Male sprague-Dawley rats, 6 week old, were orally given the compunds or tap water at a volume of 5 ml/kg. After one hour, the animals were anesthetized with sodium pentobarbital. The animals were subjected to laparotomy, and the left renal artery was clamped completely for one hour. The clamp was undone, and the incision was closed. The animals were again given orally the compounds or tap water 20 hours later. Further four hours later, the animals were again anesthetized, and the blood was obtained from the abdominal aorta. The plasma was separated for measurement of urea nitrogen (BUN).

[9] = treated 30 minutes before the test
[10] = treating 3 hours before the test (*1)

Row | SMILES | inhibition at 10 µM [3, 9] | inhibition at 10 µM [4, 9] | Antihypertensive effect (Δ mm Hg) ([1]; 3 mg/kg oral) | also measured
1 | O=C1Nc2cc([N+](=O)[O-])ccc2OC1CCCN1CCN(c2ccc(F)cc2)CC1 (stereo not shown) [Example 6, 2-{3-[4-(4-fluorophenyl)-1-piperazinyl]propyl}-6-nitro-2H-1,4-benzoxazin-3(4H)-one] | 37% | 100% | – | Antihypertensive effect (Δ mm Hg) ([1]; 60 mg/kg oral): 43 mm Hg; inhibition at 10 µM [2]: 81%
2 | O=C1Nc2ccccc2OC1CCCN1CCN(c2ccc(F)cc2)CC1 (stereo not shown) [Example 2] | – | 100% | – | Antihypertensive effect (Δ mm Hg) ([1]; 60 mg/kg oral): 44 mm Hg; inhibition at 10 µM [3, 10]: 73%
3 | Cc1ccc2c(c1)NC(=O)C(CCCN1CCN(c3ccc(F)cc3)CC1)O2 (stereo not shown) [Example 3] | 10% | 99% | – | Antihypertensive effect (Δ mm Hg) ([1]; 60 mg/kg oral): 45 mm Hg; inhibition at 10 µM [2]: 91%; inhibition at 10 µM [5]: 60%
4 | CC(=O)Nc1ccc2c(c1)NC(=O)C(CCCN1CCN(c3ccc(F)cc3)CC1)O2 (stereo not shown) [Example 25, 6-acetamido-2-{3-[4-(4-fluorophenyl)-1-piperazinyl]propyl}-2H-1,4-benzoxazin-3(4H)-one] | 9% | 100% | – | Antihypertensive effect (Δ mm Hg) ([1]; 60 mg/kg oral): 81 mm Hg
5 | O=C1Nc2cc(C(F)(F)F)ccc2OC1CCCN1CCN(c2ccc(F)cc2)CC1 (stereo not shown) [Example 27, 2-{3-[4-(4-fluorophenyl)-1-piperazinyl]propyl}-6-trifluoromethyl-2H-1,4-benzoxazin-3(4H)-one] | 36% | 98% | – | –
6 | O=C1Nc2c(ccc3c2CCC3)OC1CCCN1CCN(c2ccc(F)cc2)CC1 (stereo not shown) [Example 28, 5,6-cyclopenteno-2-{3-[4-(4-fluorophenyl)-1-piperazinyl]propyl}-2H-1,4-benzoxazin-3(4H)-one] | 28% | 100% | 20 mm Hg | –
7 | Nc1ccc2c(c1)NC(=O)C(CCCN1CCN(c3ccc(F)cc3)CC1)O2 (stereo not shown) [Example 24, 6-amino-2-{3-[4-(4-fluorophenyl)-1-piperazinyl]propyl}-2H-1,4-benzoxazin-3(4H)-one] | – | – | – | Antihypertensive effect (Δ mm Hg) ([1]; 60 mg/kg oral): 60 mm Hg
8 | O=C1Nc2cc3c(cc2OC1CCCN1CCN(c2ccc(F)cc2)CC1)OCO3 (stereo not shown) [Example 13] | 24% | 100% | 27 mm Hg | –
9 | O=C1Nc2cc3c(cc2O[C@@H]1CCCN1CCN(c2ccc(F)cc2)CC1)CCCC3 [Example 31, (R)-(+)-2-{3-[4-(4-fluorophenyl)-1-piperazinyl]propyl}-6,7,8,9-tetrahydro-2H-naphtho[2,3-b][1,4]oxazin-3(4H)-one] | 30% | 99% | 21 mm Hg | –
10 | O=C1Nc2cc3c(cc2O[C@H]1CCCN1CCN(c2ccc(F)cc2)CC1)CCCC3 [Example 30, (S)-(-)-2-{3-[4-(4-fluorophenyl)-1-piperazinyl]propyl}-6,7,8,9-tetrahydro-2H-naphtho[2,3-b][1,4]oxazin-3(4H)-one] | 33% | 73% | 21 mm Hg | –
11 | CCOC(=O)c1ccc2c(c1)OC(CCCN1CCN(c3ccc(F)cc3)CC1)C(=O)N2 (stereo not shown) [Example 8] | 33% | 98% | – | Antihypertensive effect (Δ mm Hg) ([1]; 60 mg/kg oral): 35 mm Hg
12 | O=C1Nc2cc3c(cc2OC1CCCN1CCN(c2cccc(F)c2)CC1)CCCC3 (stereo not shown) [Example 14] | – | – | 54 mm Hg | LD50 at 168 h [6]: ≥ 300 mg/kg; inhibition at 1 µM [5]: 61%
13 | O=C1Nc2cc3c(cc2OC1CCCN1CCN(c2ccc(O)cc2)CC1)CCCC3 (stereo not shown) [Example 21] | 26% | 99% | – | inhibition at 1 µM [5]: 54%
14 | CN1C(=O)C(CCCN2CCN(c3ccc(F)cc3)CC2)Oc2cc3c(cc21)CCCC3 (stereo not shown) [Example 23, 2-{3-[4-(4-fluorophenyl)-1-piperazinyl]propyl}-6,7,8,9-tetrahydro-4-methyl-2H-naphtho[2,3-b][1,4]oxazin-3(4H)-one] | – | – | – | inhibition at 1 µM [5]: 42%
15 | O=C1Nc2cc3c(cc2OC1CCCN1CCN(c2ccc(F)cc2)CC1)CCC3 (stereo not shown) [Example 12] | 21% | 100% | 20 mm Hg | –
16 | COc1ccccc1N1CCN(CCCC2Oc3cc4c(cc3NC2=O)CCCC4)CC1 (stereo not shown) [Example 15] | 8% | 100% | 49 mm Hg | LD50 at 168 h [6]: ≥ 300 mg/kg; inhibition at 1 µM [5]: 58%
17 | O=C1Nc2cc3c(cc2OC1CCCN1CCN(c2ccccc2)CC1)CCCC3 (stereo not shown) [Example 18] | – | – | 32 mm Hg | LD50 at 168 h [6]: ≥ 300 mg/kg; inhibition at 1 µM [5]: 59%
18 | Cc1ccc(N2CCN(CCCC3Oc4cc5c(cc4NC3=O)CCCC5)CC2)cc1 (stereo not shown) [Example 17] | – | – | 26 mm Hg | –
19 | O=C1Nc2cc3c(cc2OC1CCCCN1CCN(c2ccc(F)cc2)CC1)CCCC3 (stereo not shown) [Example 22] | 14% | 95% | 23 mm Hg | inhibition at 10 µM [2]: 38%
20 | Cc1ccc2c(c1)NC(=O)C(CCN1CCN(c3ccc(F)cc3)CC1)O2 (stereo not shown) [Example 5] | 9% | 86% | – | inhibition at 10 µM [2]: 100%; inhibition at 10 µM [5]: 58%
21 | O=C1Nc2cc3c(cc2OC1CCCN1CCN(c2ccc(F)cc2)CC1)CCCC3 (stereo not shown) [1 (2HCl salt), 2-{3-[4-(4-fluorophenyl)-1-piperazinyl]propyl}-6,7,8,9-tetrahydro-2H-naphtho[2,3-b][1,4]oxazin-3(4H)-one] | – | – | 30 mm Hg | Antihypertensive effect (Δ mm Hg) ([1]; 10 mg/kg oral): 50 mm Hg; Cardiac arrest incidence ([7]; 3 mg/kg): 2/9; Ventricular fibrillation incidence ([7]; 3 mg/kg, *P < 0.05): 5/9; Ventricular tachycardia incidence ([7]; 3 mg/kg): 7/9; Cardiac arrest incidence ([7]; 10 mg/kg): 4/11; Ventricular fibrillation incidence ([7]; 10 mg/kg, **P < 0.01): 5/11; Ventricular tachycardia incidence ([7]; 10 mg/kg, **P < 0.01): 7/11; Cardiac arrest incidence ([7]; 20 mg/kg): 0/5; Ventricular fibrillation incidence ([7]; 20 mg/kg, **P < 0.01): 0/5; Ventricular tachycardia incidence ([7]; 20 mg/kg, **P < 0.01): 2/5; inhibition at 10 µM [2]: 52%; inhibition at 10 µM [3, 10]: 82%; inhibition at 10 µM ([4]; treating 2 hours before the test (*2)): 95%; BUN ([8]; 1 mg/kg): 24 ± 0.5 mg/dL; BUN ([8]; 3 mg/kg): 22 ± 2 mg/dL; BUN ([8]; 10 mg/kg): 23 ± 0.5 mg/dL
22 | O=C1Nc2c(ccc3c2CCCC3)OC1CCCN1CCN(c2ccc(F)cc2)CC1 (stereo not shown) [Example 10] | – | – | – | Antihypertensive effect (Δ mm Hg) ([1]; 10 mg/kg oral): 23 mm Hg; inhibition at 10 µM [5]: 59%
23 | O=C1Nc2cc(Cl)ccc2OC1CCCN1CCN(c2ccc(F)cc2)CC1 (stereo not shown) [Example 7] | 29% | 98% | – | inhibition at 10 µM [2]: 81%
